Patent publication US7425641B2, “Carboxylic acid amides, the preparation thereof and their use as pharmaceutical compositions” (Boehringer Ingelheim Pharma KG, priority 1999, dated 2008)
Where a name gives a salt, the structure may show the parent alone.

Columns and labels:
human factor Xa = molecular target: T1, human factor Xa (Homo sapiens, UniProt P00742); experiment: inhibition of factor Xa, enzyme-kinetic measurement with chromogenic substrate; type: biochemical; conditions: substrate Chromozym X 200 μMol/l, factor Xa (Roche) 0.175 U/ml, pH 8.0, 37° C., photometric at 405 nm
T1 construct: released from the colourless chromogenic substrate by human factor Xa; purchased Roche
T1 sequence (P00742 235-488 limits assumed): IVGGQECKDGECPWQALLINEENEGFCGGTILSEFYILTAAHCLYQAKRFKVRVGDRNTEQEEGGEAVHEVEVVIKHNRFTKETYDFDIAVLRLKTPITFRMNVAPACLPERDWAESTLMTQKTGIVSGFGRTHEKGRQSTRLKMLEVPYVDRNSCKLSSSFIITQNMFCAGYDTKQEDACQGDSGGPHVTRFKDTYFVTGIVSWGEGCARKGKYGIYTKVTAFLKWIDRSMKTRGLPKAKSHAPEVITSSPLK
T1 sequence (P00742 41-179 partner limits assumed): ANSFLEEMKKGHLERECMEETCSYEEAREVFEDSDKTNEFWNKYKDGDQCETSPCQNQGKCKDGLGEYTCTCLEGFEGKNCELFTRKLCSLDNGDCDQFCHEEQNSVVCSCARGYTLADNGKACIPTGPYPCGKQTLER
Description: For example, the compounds • A=2-(5-carbamimidoyl-2-hydroxy-phenyl)-N-[3-methyl-4-(pyrrolidin-1-yl-carbonyl)-phenyl]-acetamide-hydrochloride, • B=2-(2-benzyloxy-5-carbamimidoyl-phenyl)-N-(2-ethoxycarbonyl-ethyl)-N-[3-methyl-4-(pyrrolidin-1-yl-carbonyl)-phenyl]-acetamide-hydrochloride, • C=2-(2-hydroxy-5-carbamimidoyl-phenyl)-N-(2-ethoxycarbonyl-ethyl)-N-[3-methyl-4-(pyrrolidin-1-yl-carbonyl)-phenyl]-acetamide-hydrochloride, • D=2-(2-hydroxy-5-carbamimidoyl-phenyl)-N-(2-carboxy-ethyl)-N-[3-methyl-4-(pyrrolidin-1-yl-carbonyl)-phenyl]-acetamide-hydrochloride • E=2-(5-carbamimidoyl-2-hydroxy-phenyl)-N-[3-methyl-4-(piperidin-1-yl-carbonyl)-phenyl]-acetamide-hydrochloride and • F=2-(5-carbamimidoyl-2-hydroxy-phenyl)-N-[3-methyl-4-(2-aminosulphonyl-phenyl)-phenyl]-acetamide-hydrochloride, were investigated for their effect on the inhibition of factor Xa as follows: • Method: Enzyme-kinetic measurement with chromogenic substrate. The quantity of anpnitroaniline (pNA) released from the colourless chromogenic substrate by human factor Xa is determined photometrically at 405 nm. It is proportional to the activity of the enzyme used. The inhibition of the enzyme activity by the test substance I (in relation to the solvent control) is determined at various concentrations of test substance and from this the IC50 is calculated, as the concentration which inhibits the factor Xa used by 50%. • Material: • Tris(hydroxymethyl)-aminomethane buffer (100 mmol) of and sodium chloride (150 mMol), pH 8.0 • Factor Xa (Roche), spec. activity: 10 U/0.5 ml, final concentration: 0.175 U/ml per reaction mixture • Substrate Chromozym X (Roche), final concentration: 200 μMol/l per reaction mixture • Test substance: final concentration 100, 30, 10, 3, 1, 0.3, 0.1, 0.03, 0.01, 0.003, 0.001 μMol/l
Procedure: 10 μl of a 23.5-times concentrated starting solution of the test substance or solvent (control), 175 μl of tris(hydroxymethyl)-aminomethane buffer and 25 μl of Factor Xa working solution of 1.65 U/ml are incubated for 10 minutes at 37° C. After the addition of 25 μl of Chromozym X working solution ([…]) the sample is measured in a photometer (SpectraMax 250) at 405 nm for 150 seconds at 37° C.
• 1. Determining the maximum increase (deltaOD/minutes) over 3 measuring points. • 2. Determining the % inhibition based on the solvent control. • 3. Plotting a dosage/activity curve (% inhibition vs substance concentration). • 4. Determining the IC50 by interpolating the X value (substance concentration) of the dosage/activity curve at Y=50% inhibition.

| melting point | IC50 (human factor Xa) [µM] | Compound |
| --- | --- | --- |
| 190 to 215 °C |  | Cl.N=C(N)c1cccc(C(=O)NCc2ccc(NC(=O)c3ccccc3)cc2)c1 |
| 266 °C |  | Cl.N=C(N)c1cccc(C(=O)NCc2ccc(NS(=O)(=O)c3ccccc3)cc2)c1 |
| 115 °C (dec.) |  | Cl.N=C(N)c1cccc(C(=O)NCc2ccc(Oc3ccncc3)cc2)c1 |
|  | 0.03 | Cc1cc(NC(=O)Cc2cc(C(=N)N)ccc2O)ccc1C(=O)N1CCCC1 [A, 2-(5-carbamimidoyl-2-hydroxy-phenyl)-N-[3-methyl-4-(pyrrolidin-1-yl-carbonyl)-phenyl]-acetamide-hydrochloride] |
|  | 0.68 | CCOC(=O)CCN(C(=O)Cc1cc(C(=N)N)ccc1OCc1ccccc1)c1ccc(C(=O)N2CCCC2)c(C)c1 [B, 2-(2-benzyloxy-5-carbamimidoyl-phenyl)-N-(2-ethoxycarbonyl-ethyl)-N-[3-methyl-4-(pyrrolidin-1-yl-carbonyl)-phenyl]-acetamide-hydrochloride] |
|  | 0.12 | CCOC(=O)CCN(C(=O)Cc1cc(C(=N)N)ccc1O)c1ccc(C(=O)N2CCCC2)c(C)c1 [C, 2-(2-hydroxy-5-carbamimidoyl-phenyl)-N-(2-ethoxycarbonyl-ethyl)-N-[3-methyl-4-(pyrrolidin-1-yl-carbonyl)-phenyl]-acetamide-hydrochloride] |
|  | 0.85 | Cc1cc(N(CCC(=O)O)C(=O)Cc2cc(C(=N)N)ccc2O)ccc1C(=O)N1CCCC1 [D, 2-(2-hydroxy-5-carbamimidoyl-phenyl)-N-(2-carboxy-ethyl)-N-[3-methyl-4-(pyrrolidin-1-yl-carbonyl)-phenyl]-acetamide-hydrochloride] |
|  | 0.085 | Cc1cc(NC(=O)Cc2cc(C(=N)N)ccc2O)ccc1C(=O)N1CCCCC1 [E, 2-(5-carbamimidoyl-2-hydroxy-phenyl)-N-[3-methyl-4-(piperidin-1-yl-carbonyl)-phenyl]-acetamide-hydrochloride] |
|  | 0.26 | Cc1cc(NC(=O)Cc2cc(C(=N)N)ccc2O)ccc1-c1ccccc1S(N)(=O)=O [F, 2-(5-carbamimidoyl-2-hydroxy-phenyl)-N-[3-methyl-4-(2-aminosulphonyl-phenyl)-phenyl]-acetamide-hydrochloride] |
